Results taken from the supplement of paper PMC10307832.

Experiments:
Assay in all cases: relative viability (nuclei count vs DMSO), 5 days (fraction); higher = more cells survive
[1] = tested on: 201T
How it was run: (§1)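 Relative viability is defined as nuclei in treated wells over nuclei in vehicle wells. Duplicate plates were run and medians reported. Lung cancer cell lines in 1536-well plates were dosed by pin tool one day after seeding, with one drug or with a fixed anchor-drug dose plus five library-drug doses (not always all listed) in √10 steps, and nuclei were counted after 5 days.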

[2] = tested on: A-427
How it was run: as §1

[3] = tested on: BEN
How it was run: as §1

[4] = tested on: COR-L23
How it was run: as §1

[5] = tested on: EKVX
How it was run: as §1

[6] = tested on: HARA
How it was run: as §1

[7] = tested on: HCC-15
How it was run: as §1

[8] = tested on: HCC-44
How it was run: as §1

[9] = tested on: HCC-827
How it was run: as §1

[10] = tested on: NCI-H1437
How it was run: as §1

[11] = tested on: NCI-H1650
How it was run: as §1

[12] = tested on: NCI-H1666
How it was run: as §1

[13] = tested on: NCI-H1792
How it was run: as §1

[14] = tested on: NCI-H1975
How it was run: as §1

[15] = tested on: NCI-H2342
How it was run: as §1

[16] = tested on: NCI-H23
How it was run: as §1

[17] = tested on: NCI-H358
How it was run: as §1

[18] = tested on: NCI-H441
How it was run: as §1

[19] = tested on: NCI-H596
How it was run: as §1

[20] = tested on: NCI-H650
How it was run: as §1

[21] = tested on: NCI-H838
How it was run: as §1

[22] = tested on: SK-MES-1
How it was run: as §1

[23] = tested on: SW 900
How it was run: as §1

O=c1cc(-c2cccc3c2Sc2ccccc2S3)oc(N2CCOCC2)c1 + CC(=O)Nc1cccc(-n2c(=O)n(C3CC3)c(=O)c3c(Nc4ccc(I)cc4F)n(C)c(=O)c(C)c32)c1 [Trametinib] (partner 0.02 µM)
relative viability ([1]; first compound 0.08 µM): 0.722
relative viability ([1]; first compound 0.253 µM): 0.735
relative viability ([1]; first compound 0.8 µM): 0.727
relative viability ([1]; first compound 2.53 µM): 0.673
relative viability ([1]; first compound 8 µM): 0.686
relative viability ([2]; first compound 0.08 µM): 0.718
relative viability ([2]; first compound 0.253 µM): 0.867
relative viability ([2]; first compound 0.8 µM): 0.735
relative viability ([2]; first compound 2.53 µM): 0.709
relative viability ([2]; first compound 8 µM): 0.747
relative viability ([3]; first compound 0.08 µM): 0.945
relative viability ([3]; first compound 0.253 µM): 0.982
relative viability ([3]; first compound 0.8 µM): 1.1
relative viability ([3]; first compound 2.53 µM): 0.975
relative viability ([3]; first compound 8 µM): 1.07
relative viability ([4]; first compound 0.08 µM): 0.593
relative viability ([4]; first compound 0.253 µM): 0.689
relative viability ([4]; first compound 0.8 µM): 0.51
relative viability ([4]; first compound 2.53 µM): 0.592
relative viability ([4]; first compound 8 µM): 0.689
relative viability ([5]; first compound 0.08 µM): 0.554
relative viability ([5]; first compound 0.253 µM): 0.332
relative viability ([5]; first compound 0.8 µM): 0.296
relative viability ([5]; first compound 2.53 µM): 0.332
relative viability ([5]; first compound 8 µM): 0.336
relative viability ([6]; first compound 0.08 µM): 0.786
relative viability ([6]; first compound 0.253 µM): 0.615
relative viability ([6]; first compound 0.8 µM): 0.537
relative viability ([6]; first compound 2.53 µM): 0.668
relative viability ([6]; first compound 8 µM): 0.581
relative viability ([7]; first compound 0.08 µM): 0.362
relative viability ([7]; first compound 0.253 µM): 0.454
relative viability ([7]; first compound 0.8 µM): 0.369
relative viability ([7]; first compound 2.53 µM): 0.363
relative viability ([7]; first compound 8 µM): 0.38
relative viability ([8]; first compound 0.08 µM): 0.993
relative viability ([8]; first compound 0.253 µM): 1.01
relative viability ([8]; first compound 0.8 µM): 0.985
relative viability ([8]; first compound 2.53 µM): 1.01
relative viability ([8]; first compound 8 µM): 1.07
relative viability ([9]; first compound 0.08 µM): 0.508
relative viability ([9]; first compound 0.253 µM): 0.563
relative viability ([9]; first compound 0.8 µM): 0.537
relative viability ([9]; first compound 2.53 µM): 0.427
relative viability ([9]; first compound 8 µM): 0.544
relative viability ([10]; first compound 0.08 µM): 0.47
relative viability ([10]; first compound 0.253 µM): 0.64
relative viability ([10]; first compound 0.8 µM): 0.483
relative viability ([10]; first compound 2.53 µM): 0.395
relative viability ([10]; first compound 8 µM): 0.412
relative viability ([11]; first compound 0.08 µM): 0.516
relative viability ([11]; first compound 0.253 µM): 0.648
relative viability ([11]; first compound 0.8 µM): 0.503
relative viability ([11]; first compound 2.53 µM): 0.497
relative viability ([11]; first compound 8 µM): 0.622
relative viability ([12]; first compound 0.08 µM): 0.828
relative viability ([12]; first compound 0.253 µM): 0.916
relative viability ([12]; first compound 0.8 µM): 0.864
relative viability ([12]; first compound 2.53 µM): 0.89
relative viability ([12]; first compound 8 µM): 0.793
relative viability ([13]; first compound 0.08 µM): 0.446
relative viability ([13]; first compound 0.253 µM): 0.685
relative viability ([13]; first compound 0.8 µM): 0.441
relative viability ([13]; first compound 2.53 µM): 0.421
relative viability ([13]; first compound 8 µM): 0.38
relative viability ([14]; first compound 0.08 µM): 0.323
relative viability ([14]; first compound 0.253 µM): 0.295
relative viability ([14]; first compound 0.8 µM): 0.327
relative viability ([14]; first compound 2.53 µM): 0.347
relative viability ([14]; first compound 8 µM): 0.39
relative viability ([15]; first compound 0.08 µM): 0.744
relative viability ([15]; first compound 0.253 µM): 0.897
relative viability ([15]; first compound 0.8 µM): 0.736
relative viability ([15]; first compound 2.53 µM): 0.716
relative viability ([15]; first compound 8 µM): 0.935
relative viability ([16]; first compound 0.08 µM): 0.334
relative viability ([16]; first compound 0.253 µM): 0.418
relative viability ([16]; first compound 0.8 µM): 0.349
relative viability ([16]; first compound 2.53 µM): 0.313
relative viability ([16]; first compound 8 µM): 0.317
relative viability ([17]; first compound 0.08 µM): 0.123
relative viability ([17]; first compound 0.253 µM): 0.134
relative viability ([17]; first compound 0.8 µM): 0.123
relative viability ([17]; first compound 2.53 µM): 0.111
relative viability ([17]; first compound 8 µM): 0.152
relative viability ([18]; first compound 0.08 µM): 0.34
relative viability ([18]; first compound 0.253 µM): 0.527
relative viability ([18]; first compound 0.8 µM): 0.55
relative viability ([18]; first compound 2.53 µM): 0.465
relative viability ([18]; first compound 8 µM): 0.424
relative viability ([19]; first compound 0.08 µM): 0.819
relative viability ([19]; first compound 0.253 µM): 0.925
relative viability ([19]; first compound 0.8 µM): 0.823
relative viability ([19]; first compound 2.53 µM): 0.934
relative viability ([19]; first compound 8 µM): 0.801
relative viability ([20]; first compound 0.08 µM): 0.994
relative viability ([20]; first compound 0.253 µM): 1.03
relative viability ([20]; first compound 0.8 µM): 0.959
relative viability ([20]; first compound 2.53 µM): 0.901
relative viability ([20]; first compound 8 µM): 0.977
relative viability ([21]; first compound 0.08 µM): 0.462
relative viability ([21]; first compound 0.253 µM): 0.673
relative viability ([21]; first compound 0.8 µM): 0.49
relative viability ([21]; first compound 2.53 µM): 0.502
relative viability ([21]; first compound 8 µM): 0.47
relative viability ([22]; first compound 0.08 µM): 0.543
relative viability ([22]; first compound 0.253 µM): 0.579
relative viability ([22]; first compound 0.8 µM): 0.448
relative viability ([22]; first compound 2.53 µM): 0.481
relative viability ([22]; first compound 8 µM): 0.379
relative viability ([23]; first compound 0.253 µM): 0.93
relative viability ([23]; first compound 0.8 µM): 0.777
relative viability ([23]; first compound 2.53 µM): 0.814
relative viability ([23]; first compound 8 µM): 0.816
